Here are results for six molecules from patent US20060258635A1, “Use of a porphyrin compound for the treatment of skin fungi” (PHOTOBIOCHEM N.V., priority 2003, published 2006).

The test system of data set [1] is Trichophyton rubrum. As to the kind of experiment: Photodynamic treatment of Trichophyton rubrum suspension culture (white light illumination, growth on MEA quantified by counting inoculates). Type of data set: cell-based. Particulars: for photodynamic efficacy below a concentration of 3 μg/ml: below 3 μg/ml; for photodynamic efficacy below a concentration of 3 μg/ml / photodynamic efficacy above a concentration of 3 μg/ml: FIG. 1A; for survival of the fungus after photodynamic treatment: after 7 days, over the whole concentration range used, control without photosensitizer is 100%; for result of photodynamic treatment of Trichophyton rubrum in suspension culture: 30 min incubation at 28° C., white light illumination, growth monitored during one week; for photodynamic efficacy above a concentration of 3 μg/ml: above 3 μg/ml; for concentration at which a true fungicidal effect was detected: after photodynamic treatment, FIG. 1B. The method, then: Materials The fungus Trichophyton rubrum was purchased from the Centraalbureau voor Schimmelcultures (CBS), Baarn, The Netherlands. Cultures were grown on Malt Extract Agar (MEA, Oxoid, Hampshire England). Suspension cultures were made in Dulbecco's Modified Eagle Medium (DMEM, GibcoBRL, UK) with 2.5 % Fetal Calf Serum (FCS, GibcoBRL, UK).
Solid cultures were maintained at 28° C., the suspension cultures at room temperature. Hematoporphyrin (HP) was purchased from Porphyrin Products Inc. (Utah, USA), 5,10,15-tris(4-methylpyridinium)-20-phenyl-[21H, 23H]-porphyrine trichloride (Sylsens B), deuteroporphyrin (DP) and deuteroporphyrin monomethylester (DP mme) were synthesized and kindly provided by the Department of Bio-Organic Photochemistry, Leiden University, the Netherlands (purity, checked with NMR was more than 99.5%). All the phthalocyanines were purchased from Porphyrin Products. Inc. (Utah, USA)) and Photofrin was purchased from Lederle Parenterals Inc. (Carolina, USA). Polyethylene-glycol was obtained from Genfarma B.V. (Maarssen, the Netherlands), while all other chemicals were purchased from J.T.Baker (Deventer, The Netherlands).
The following solvents were used: • 50 mM sodium phosphate buffer pH 7.4 for Sylsens B, HP, Photofrin, ZnPc and AlPcS4; • polyethyleneglycol:ethanol:water (3:2:5) for DP and DP mme; and • dimethylformamide (DMF) for PcS4.
Stock solutions of the photosensitizers of 2.5 mg/ml solvent were stored at […] for no longer than one week.
Photodynamic treatment Illuminations were performed with a lamp from “MASSIVE” (no.74900/21), 1× max. 500W-230 V-R7s, IP 44. To avoid heating of the samples to be illuminated, the white light produced by the lamp first passes a 2 cm thick water layer before reaching the samples. The light intensity was measured with a IL1400A photometer equipped with a SEL033/F/U detector (International Light, Newburyport, Mass., USA). Before illumination, the fungal culture suspensions were incubated with the photosensitizer in test tubes for 30 minutes at a temperature of 28° C. After incubation, the suspension cultures were illuminated in the presence of the sensitizer in 3 cm diameter culture dishes (Greiner, Alphen aan den Rijn, The Netherlands). After illumination, the contents of the culture dishes were transferred to dishes of 9 cm diameter containing MEA, placed in the incubator at 28° C. and growth was monitored during one week and quantified by counting the number of inoculates present.

Data set [2] has as its system Trichophyton rubrum. The format is cell-based.

Turning to `CC1=C(CCC(=O)O)c2cc3nc(cc4[nH]c(cc4C)cc4[nH]c(cc1n2)cc4C)C(C)=C3CCC(=O)O` [DP, deuteroporphyrin], the “photodynamic efficacy below a concentration of 3 μg/ml” value in data set [1] is reported as “poorest efficacy”. Besides, in data set [2], the dark toxicity entry is “expresses a dark toxicity at higher concentrations”.
Regarding `[Zn+2].c1ccc2c(c1)-c1nc-2nc2[n-]c(nc3nc([n-]c4nc(n1)-c1ccccc1-4)-c1ccccc1-3)c1ccccc21` [ZnPc], the “survival of the fungus after photodynamic treatment” value in data set [1] is reported as 100%.
Take `C[n+]1ccc(-c2c3nc(c(-c4cc[n+](C)cc4)c4ccc([nH]4)c(-c4cc[n+](C)cc4)c4nc(c(-c5ccccc5)c5ccc2[nH]5)C=C4)C=C3)cc1.[Cl-].[Cl-].[Cl-]` [Sylsens B, 5,10,15-tris(4-methylpyridinium)-20-phenyl-[21H, 23H]-porphyrine trichloride]: in data set [1], the “result of photodynamic treatment of Trichophyton rubrum in suspension culture” value (“result” for short) is given as “completely killing the fungus in almost all experiments”, the “photodynamic efficacy above a concentration of 3 μg/ml” value is recorded as “analogous to the effect caused by the other porphyrins”, the “concentration at which a true fungicidal effect was detected” value came to 3 µg/mL and the “photodynamic efficacy below a concentration of 3 μg/ml” value is “better photodynamic efficacy”. In data set [1] (comparison of porphyrin derivatives), the “effectiveness among the porphyrin derivatives” value is “by far the most effective”. In data set [2], the dark toxicity result is “no dark toxicity”.
For “deuteroporphyrin monomethylester [DP mme]”, in data set [1], the “result” value is “completely killing the fungus in almost all experiments”, the “photodynamic efficacy above a concentration of 3 μg/ml” value is reported as “analogous to the effect caused by the other porphyrins”, the “concentration at which a true fungicidal effect was detected” value amounted to 3 µg/mL and the “photodynamic efficacy below a concentration of 3 μg/ml” value is reported as “the same as detected with HP”. For the same molecule, in data set [2], the dark toxicity entry is listed as “expresses a dark toxicity at higher concentrations”.
With Photofrin, in data set [1], the “result” value is listed as “merely a delay of growth in the first days” and the “survival of the fungus after photodynamic treatment” value worked out at 100%. Besides, the “concentration at which dark toxicity is displayed” value in data set [2] is at least 90 µg/mL.
With `CC1=C(CCC(=O)O)c2cc3[nH]c(cc4nc(cc5[nH]c(cc1n2)c(C)c5C(C)O)C(C)=C4C(C)O)c(C)c3CCC(=O)O` (stereo not drawn) [HP, Hematoporphyrin], in data set [2], the dark toxicity result was “no dark toxicity”.
